Measurements published in patent publication US6048715A, “Two-phase partition affinity separation system and affinity separated cell-containing composition” (priority 1996, dated 2000).

Target: T1, CBDN1 (Cellulomonas fimi, UniProt P14090)
T1 construct: Cex leader peptide (secretion signal of the vector) (N); made in house; purified from the culture supernatant
T1 sequence (P14090 33-184): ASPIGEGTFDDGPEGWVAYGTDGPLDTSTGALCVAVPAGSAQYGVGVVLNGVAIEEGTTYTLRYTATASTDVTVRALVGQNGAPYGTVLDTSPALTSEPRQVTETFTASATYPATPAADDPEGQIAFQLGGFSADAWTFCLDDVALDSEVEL
Assay: Isothermal titration microcalorimetry of oligosaccharide binding
Conditions: N1 binding, 35° C., Table 8
Text: The PBP can be obtained following isolation and purification of the enzyme by clipping off the PBP from the remainder of the enzyme. For use in the phase separation system, the PBP is screened for binding to soluble phase-forming oligosaccharides. While any of a number of methods can be used for screening, including NMR alone, NMA/calorimetry, affinity electrophoresis alone, affinity electrophoresis/competition assay, and binding isotherms. Binding equilibrium studies using isothermal titration microcalorimetry (ITC) are preferred. The advantage of isothermal titration microcalorimetry […] in binding equilibrium studies derives from the fact that binding isotherms are defined by the experiment in terms of heats of reaction; as such, they allow a direct estimation of enthalpy (and entropy (changes in addition to the association constant. Thus, a single microcalorimetric titration provides a complete characterization of the binding energetics along with the binding isotherm. (Haynes et al., J. Colloid Interface Sci., (1994) 169:313; Colloids & Surfaces, (1994) 2:517.
Microcalorimetry was used to measure binding thermodynamics for CBDN1 to a wide range of water-soluble oligosaccharides with the aim of identifying a set of suitable ligands for the affinity partition system. […] For both oligosaccharides,CPDN1 binding is as tight or even tighter than nearly all PEG-based affinity ligands (e.g., Cibacron blue-PEG, Procion red-PEG, dinitrophenyl-PEG, diacetic acid-PEG) currently in use in affinity partition systems.

| -TΔS^o | ΔH^o | SMILES |
| --- | --- | --- |
| 0.79 kcal/mol | -6.9 ± 0.2 kcal/mol | OC[C@H]1O[C@@H](O[C@H]2[C@H](O)[C@@H](O)[C@H](O[C@H]3[C@H](O)[C@@H](O)[C@H](O[C@H]4[C@H](O)[C@@H](O)[C@H](O[C@H]5[C@H](O)[C@@H](O)[C@H](O[C@H]6[C@H](O)[C@@H](O)C(O)O[C@@H]6CO)O[C@@H]5CO)O[C@@H]4CO)O[C@@H]3CO)O[C@@H]2CO)[C@H](O)[C@@H](O)[C@@H]1O (stereo partly drawn) [Cellohexaose] |
| 0.86 kcal/mol | -6.8 ± 0.2 kcal/mol | OC[C@H]1O[C@@H](O[C@H]2[C@H](O)[C@@H](O)[C@H](O[C@H]3[C@H](O)[C@@H](O)[C@H](O[C@H]4[C@H](O)[C@@H](O)[C@H](O[C@H]5[C@H](O)[C@@H](O)C(O)O[C@@H]5CO)O[C@@H]4CO)O[C@@H]3CO)O[C@@H]2CO)[C@H](O)[C@@H](O)[C@@H]1O (stereo partly drawn) [Cellopentaose] |
| 1.4 ± 0.1 kcal/mol | -6.4 ± 0.2 kcal/mol | OC[C@H]1O[C@@H](O[C@H]2[C@H](O)[C@@H](O)[C@H](O[C@H]3[C@H](O)[C@@H](O)[C@H](O[C@H]4[C@H](O)[C@@H](O)C(O)O[C@@H]4CO)O[C@@H]3CO)O[C@@H]2CO)[C@H](O)[C@@H](O)[C@@H]1O (stereo partly drawn) [Cellotetraose] |
